Legend:
[1] = Drug uptake in po dosed Hartley guinea pig plasma; assay type: ADME, organism-based, Cavia porcellus; conditions: in vivo
[2] = Drug uptake in Hartley guinea pig plasma at 0.01 to 0.3 mg/kg administered via intra-tracheal instillation measured after 1 hr; assay type: ADME, organism-based, Cavia porcellus; conditions: in vivo, inhaled_or_intranasal
Mus musculus = test: In vivo inhibition of IKK2 in Balb/c mouse assessed as decrease in IL-1beta-induced NF-kappaB activation administered intranasally 0.5 to 1 hr prior to IL-1beta challenge measured after 1 to 24 hrs by luciferase reporter gene assay; assay type: functional
[3] = Drug uptake in Hartley guinea pig lung at 0.01 to 0.3 mg/kg administered via intra-tracheal instillation measured after 1 hr; assay type: ADME, organism-based, Cavia porcellus; conditions: in vivo, inhaled_or_intranasal
[4] = Prodrug conversion in Hartley guinea pig lung assessed as formation of 2-{[2-(2-Methylamino-pyrimidin-4-yl)-lH-indole-5-carbo- nyl]-amino}-3-(phenyl-pyridin-2-yl-amino)-propionic acid at 0.01 to 0.3 administered via intra-tracheal instillation measured after 1 hr; assay type: ADME, Cavia porcellus; conditions: in vivo, inhaled_or_intranasal
[5] = Drug uptake in Hartley guinea pig lung at 0.3 mg/kg administered via intra-tracheal instillation measured after 1 hr; assay type: ADME, organism-based, Cavia porcellus; conditions: in vivo, inhaled_or_intranasal

SMILES	Drug uptake [1]	Drug uptake [2]	inhibition (Mus musculus)	Drug uptake [3]	Drug metabolism [4]	Drug uptake [5]
CNc1nccc(-c2cc3cc(C(=O)N[C@@H](CN(c4ccccc4)c4ccccn4)C(=O)O)ccc3[nH]2)n1	Active	Active	Dose-dependent effect	Active		
CNc1nccc(-c2cc3cc(C(=O)N[C@@H](CN(c4ccccc4)c4ccccn4)C(=O)NOC)ccc3[nH]2)n1	Active	Active	Dose-dependent effect		Metabolite_Detected	Active

From ChEMBL document CHEMBL3879886, “Substantially pure 2-{[2-(2-Methylamino-Pyrimidin-4-YL)-1H-Indole-5-Carbonyl]-Amino}-3-Phenylpyridin-2-YL-Amino)-Propionic acid as an IkB kinase inhibitor” (2007)
